Assay results taken from patent US9364462B2, “Alpha-1-adrenergic receptor agonist therapy” (The Regents of the University of California, priority 2012, dated 2016).

Test system: adult mouse cardiac muscle cells
Experiment: Protection of adult mouse cardiac muscle cells against doxorubicin (DOX)
Format: cell-based
From the text: FIG. 3. A61603 protects adult cardiac muscle cells. In adult mouse cardiac muscle cells, A61603 at a low concentration activates ERK (left), and protects against a cardiotoxic cancer drug, (DOX) (right). These effects are not blocked by a beta-blocker, propranolol (Prop), which is current standard of care in heart failure therapy. That is, A61603 effects are additive to those of a beta-blocker. Knockout of the alpha-1A receptor (AKO) eliminates myocyte protection by A61603 (right), showing that the drug does indeed work through the alpha-1A, as expected.

CS(=O)(=O)Nc1c(O)ccc2c1CCCC2C1=NCCN1 (centres unmarked) [A61603, N-[1-(4,5-dihydro-1H-imidazol-2-yl)-6-hydroxy-tetralin-5-yl]methanesulfonamide]
protection against cardiotoxic cancer drug (DOX) (FIG. 3 right): protects
ERK activation and DOX protection in presence of beta-blocker propranolol (with propranolol (Prop)): not blocked
